Values of other authors in patent publication US20230134521A1, “COMPOUNDS FOR METHODS FOR PROMOTING FEMALE REPRODUCTIVE HEALTH THROUGH MEDIATION OF RENIN ANGIOTENSIN FUNCTION” (priority 2021, published 2023).
Ends that are not written are not given here.

Assays:
[1] = system: female sexual health, performance or libido; details: doses administered to women
[2] = system: rabbit clitoral cavernosal and vaginal smooth muscle strips; details: organ bath; for relaxation of clitoral and vaginal smooth muscle: female rabbit clitoral (cavernosal) and vaginal smooth muscle
[3] = system: pre-menopausal women with SIAD related disorders (hypoactive sexual desire disorder)

## CCCc1nc(C)c2c(=O)[nH]c(-c3cc(S(=O)(=O)N4CCN(CC)CC4)ccc3OCC)nn12 [Levitra]
[1]
  improvement to sexual health, performance or libido in women: without improvement

## N=C(N)NCCC[C@H](N)C(=O)O [L-arginine]
[2]; rabbit clitoral cavernosal smooth muscle strips
  relaxation of clitoral cavernosal smooth muscle strips in response to NO donors: enhanced relaxation

## CCCc1nn(C)c2c(=O)[nH]c(-c3cc(S(=O)(=O)N4CCN(C)CC4)ccc3OCC)nc12 [sildenafil]
[2]
  relaxation of clitoral and vaginal smooth muscle: dose-dependent relaxation

## vasoactive intestinal polypeptide (HSDAVFTDNYTRLRKQMAVKKYLNSILN; ends and bridges not checked; UniProt P01282 125-152, looked up) [VIP, nonadrenergic/noncholinergic neurotransmitter]
[2]
  relaxation of clitoral and vaginal smooth muscle: dose-dependent relaxation

## CCCc1nn(C)c2c(=O)[nH]c(-c3cc(S(=O)(=O)N4CCN(C)CC4)ccc3OCC)nc12 [Viagra]
[1]
  improvement to sexual health, performance or libido in women: without improvement

## O=c1[nH]c2ccccc2n1CCN1CCN(c2cccc(C(F)(F)F)c2)CC1 [Flibanserin, 2H-benzimidazol-2-one, 1,3-dihydro-1-[2-[4-[3(tri-fluoromethyl)phenyl]-1-piperazinyl]ethyl]]
[3]; 100 mg daily for a minimum of 28 days
  share of women in whom the benefit was seen: 18%
[3]; human, in vivo
  therapeutic effect on Genitopelvic Pain/Penetration Disorder (vestibulodynia, dyspareunia) or Female Orgasmic Disorder: no therapeutic effect at all
[3]; median baseline about 2-3 SSEs per month, over a six month period
  median placebo-corrected increase in satisfying sexual events (SSEs): 0.5-1.0 SSEs per month
